Test results from PMC6934184, “Selective DNA-PKcs inhibition extends the therapeutic index of localized radiotherapy and chemotherapy” (The Journal of Clinical Investigation, 2019).

Molecular target: T1, STK16 (PKL12) (Homo sapiens, UniProt O75716)
T1 construct: purchased Thermo Fisher Scientific (Life Technologies) SelectScreen
Test: SelectScreen LanthaScreen
Type: binding
Conditions: read-out: % displacement
Procedure, shortened: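 Percent values come from Thermo SelectScreen profiling of NU5455, combining activity and binding assays. CSF1R was run in Z'LYTE format at Km app ATP, and CAMK1 in Adapta format with ATP listed at 10.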

T1 sequence (O75716 whole entry): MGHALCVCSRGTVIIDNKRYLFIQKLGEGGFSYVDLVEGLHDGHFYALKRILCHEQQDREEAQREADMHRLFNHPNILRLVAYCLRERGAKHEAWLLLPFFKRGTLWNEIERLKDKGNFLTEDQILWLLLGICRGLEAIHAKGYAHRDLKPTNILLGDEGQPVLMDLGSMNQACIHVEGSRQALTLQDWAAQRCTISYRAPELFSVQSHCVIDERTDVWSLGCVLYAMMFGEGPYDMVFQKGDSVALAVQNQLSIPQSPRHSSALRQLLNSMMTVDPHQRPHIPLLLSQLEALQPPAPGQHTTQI

Question: For `CN(C(=O)CN1CCOCC1)c1ccc2sc3c(-c4cccc5c(=O)cc(N6CC7CCC(C6)O7)oc45)cccc3c2c1` [NU5455], which inhibition at 1 µM is on record?
Answer: The inhibition at 1 µM was 10.5%.
